From PubChem BioAssay AID2060494 (Molecular Pharmacology Branch, DTP, NCI, 2025)

System: 435261-313-R-J1-PDC complex spheroid viability
Experiment: Anticancer human tumor 435261-313-R-J1-PDC patient-derived colon adenocarcinoma cell line growth inhibition [GQUAD]
Conditions: for IC50: curve of first compound; for viability, T/C: stronger effect = lower value; active = viability on the fitted dose curve at most 10% of control; inactive = the rest
Method in brief: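 Viability of tumor cells grown as complex spheroids with endothelial and stromal cells, exposed to drug combinations. Top concentration at or near clinical Cmax (else 10 microM), diluted in half-log increments.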

[1] = second compound 0.0316 µM, first compound 0.0316 µM
[2] = second compound 0.0316 µM, first compound 0.316 µM
[3] = second compound 0.1 µM, first compound 0.0316 µM
[4] = second compound 0.1 µM, first compound 0.316 µM
[5] = second compound 0.316 µM, first compound 0.0316 µM
[6] = second compound 0.316 µM, first compound 0.316 µM
[7] = second compound 1 µM, first compound 0.0316 µM
[8] = second compound 1 µM, first compound 0.316 µM
[9] = second compound 3.16 µM, first compound 0.0316 µM
[10] = second compound 3.16 µM, first compound 0.316 µM
[11] = second compound 10 µM, first compound 0.0316 µM
[12] = second compound 10 µM, first compound 0.316 µM
[13] = second compound 0.0316 µM, first compound 0.1 µM
[14] = second compound 0.0316 µM, first compound 1 µM
[15] = second compound 0.0316 µM, first compound 3.16 µM
[16] = second compound 0.0316 µM, first compound 10 µM
[17] = second compound 0.1 µM, first compound 0.1 µM
[18] = second compound 0.1 µM, first compound 1 µM
[19] = second compound 0.1 µM, first compound 3.16 µM
[20] = second compound 0.1 µM, first compound 10 µM
[21] = second compound 0.316 µM, first compound 0.1 µM
[22] = second compound 0.316 µM, first compound 1 µM
[23] = second compound 0.316 µM, first compound 3.16 µM
[24] = second compound 0.316 µM, first compound 10 µM
[25] = second compound 1 µM, first compound 0.1 µM
[26] = second compound 1 µM, first compound 1 µM
[27] = second compound 1 µM, first compound 3.16 µM
[28] = second compound 1 µM, first compound 10 µM
[29] = second compound 3.16 µM, first compound 0.1 µM
[30] = second compound 3.16 µM, first compound 1 µM
[31] = second compound 3.16 µM, first compound 3.16 µM
[32] = second compound 3.16 µM, first compound 10 µM
[33] = second compound 10 µM, first compound 0.1 µM
[34] = second compound 10 µM, first compound 1 µM
[35] = second compound 10 µM, first compound 3.16 µM
[36] = second compound 10 µM, first compound 10 µM
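Also: spheroids exposed to the agents for seven days before readout.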
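For viability, T/C in this document: percent of vehicle control viability with DMSO wells as 100%.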

CCc1c2c(nc3ccc(O)cc13)-c1cc3c(c(=O)n1C2)COC(=O)[C@]3(O)CC + CN(C)c1ccc(Nc2c3ccc(NC(=O)CCN4CCCC4)cc3nc3cc(NC(=O)CCN4CCCC4)ccc23)cc1
43.7 nM: IC50 (second compound 3.16 µM)
> 316 nM: IC50 (second compound 0.0316 µM)
inactive: viability, T/C (second compound 0.0316 µM, first compound 0.000999 µM) 111% | viability, T/C (second compound 0.0316 µM, first compound 0.00316 µM) 103% | viability, T/C (second compound 0.0316 µM, first compound 0.00999 µM) 73.4% | viability, T/C [1] 69.2% | viability, T/C (second compound 0.0316 µM, first compound 0.0999 µM) 65.1% | viability, T/C [2] 48.6% | viability, T/C (second compound 0.1 µM, first compound 0.000999 µM) 86.2% | viability, T/C (second compound 0.1 µM, first compound 0.00316 µM) 91.2% | viability, T/C (second compound 0.1 µM, first compound 0.00999 µM) 72.3% | viability, T/C [3] 74.5% | viability, T/C (second compound 0.1 µM, first compound 0.0999 µM) 72.4% | viability, T/C [4] 42.3% | viability, T/C (second compound 0.316 µM, first compound 0.000999 µM) 76.4% | viability, T/C (second compound 0.316 µM, first compound 0.00316 µM) 77.1% | viability, T/C (second compound 0.316 µM, first compound 0.00999 µM) 66.7% | viability, T/C [5] 78.8% | viability, T/C (second compound 0.316 µM, first compound 0.0999 µM) 48.9% | viability, T/C [6] 45.1% | viability, T/C (second compound 1 µM, first compound 0.000999 µM) 62.2% | viability, T/C (second compound 1 µM, first compound 0.00316 µM) 81.2% | viability, T/C (second compound 1 µM, first compound 0.00999 µM) 65.2% | viability, T/C [7] 70.9% | viability, T/C (second compound 1 µM, first compound 0.0999 µM) 50.4% | viability, T/C [8] 39.3% | viability, T/C (second compound 3.16 µM, first compound 0.000999 µM) 50.2% | viability, T/C (second compound 3.16 µM, first compound 0.00316 µM) 57% | viability, T/C (second compound 3.16 µM, first compound 0.00999 µM) 56.8% | viability, T/C [9] 56.2% | viability, T/C (second compound 3.16 µM, first compound 0.0999 µM) 37.1% | viability, T/C [10] 22.2% | viability, T/C (second compound 10 µM, first compound 0.000999 µM) 34.9% | viability, T/C (second compound 10 µM, first compound 0.00316 µM) 30.8% | viability, T/C (second compound 10 µM, first compound 0.00999 µM) 29.8% | viability, T/C [11] 27.1% | viability, T/C (second compound 10 µM, first compound 0.0999 µM) 18.6% | viability, T/C [12] 13.6%
104 nM: IC50 (second compound 1 µM)
94.9 nM: IC50 (second compound 0.316 µM)
< 0.999 nM: IC50 (second compound 10 µM)
240 nM: IC50 (second compound 0.1 µM)

Nc1ccn(C2OC(CO)C(O)C2(F)F)c(=O)n1 (stereo unspecified) + CN(C)c1ccc(Nc2c3ccc(NC(=O)CCN4CCCC4)cc3nc3cc(NC(=O)CCN4CCCC4)ccc23)cc1
inactive: viability, T/C [1] 90.2% | viability, T/C [13] 78.8% | viability, T/C [2] 90% | viability, T/C [14] 83% | viability, T/C [15] 77.2% | viability, T/C [16] 60.9% | viability, T/C [3] 85.3% | viability, T/C [17] 103% | viability, T/C [4] 72.5% | viability, T/C [18] 84.5% | viability, T/C [19] 70.4% | viability, T/C [20] 68.5% | viability, T/C [5] 98.4% | viability, T/C [21] 94.8% | viability, T/C [6] 70.4% | viability, T/C [22] 68.3% | viability, T/C [23] 76.9% | viability, T/C [24] 67.8% | viability, T/C [7] 79.9% | viability, T/C [25] 78.2% | viability, T/C [8] 74.5% | viability, T/C [26] 68.1% | viability, T/C [27] 78.8% | viability, T/C [28] 66.5% | viability, T/C [9] 68.7% | viability, T/C [29] 58% | viability, T/C [10] 53.2% | viability, T/C [30] 57.5% | viability, T/C [31] 54% | viability, T/C [32] 38.7% | viability, T/C [11] 30.9% | viability, T/C [33] 26.6% | viability, T/C [12] 26.2% | viability, T/C [34] 32.9% | viability, T/C [35] 26.5% | viability, T/C [36] 24.9%
2840 nM: IC50 (second compound 3.16 µM)
< 31.6 nM: IC50 (second compound 10 µM)
> 10000 nM: IC50 (second compound 0.0316 µM) | IC50 (second compound 0.1 µM) | IC50 (second compound 0.316 µM) | IC50 (second compound 1 µM)

O=c1[nH]cc(F)c(=O)[nH]1 + CN(C)c1ccc(Nc2c3ccc(NC(=O)CCN4CCCC4)cc3nc3cc(NC(=O)CCN4CCCC4)ccc23)cc1
< 31.6 nM: IC50 (second compound 10 µM)
> 10000 nM: IC50 (second compound 0.0316 µM) | IC50 (second compound 0.1 µM) | IC50 (second compound 0.316 µM) | IC50 (second compound 1 µM) | IC50 (second compound 3.16 µM)
inactive: viability, T/C [1] 118% | viability, T/C [13] 102% | viability, T/C [2] 105% | viability, T/C [14] 90.8% | viability, T/C [15] 71.6% | viability, T/C [16] 99.9% | viability, T/C [3] 117% | viability, T/C [17] 114% | viability, T/C [4] 126% | viability, T/C [18] 86.8% | viability, T/C [19] 86.9% | viability, T/C [20] 78.6% | viability, T/C [5] 104% | viability, T/C [21] 103% | viability, T/C [6] 87.4% | viability, T/C [22] 97.2% | viability, T/C [23] 111% | viability, T/C [24] 85.8% | viability, T/C [7] 118% | viability, T/C [25] 91.8% | viability, T/C [8] 98.5% | viability, T/C [26] 104% | viability, T/C [27] 81.8% | viability, T/C [28] 73.5% | viability, T/C [9] 73.3% | viability, T/C [29] 78.1% | viability, T/C [10] 73.4% | viability, T/C [30] 63.3% | viability, T/C [31] 70.2% | viability, T/C [32] 60.4% | viability, T/C [11] 29.4% | viability, T/C [33] 66% | viability, T/C [12] 41.8% | viability, T/C [34] 40% | viability, T/C [35] 43.3% | viability, T/C [36] 31.4%
